Reference: ChEMBL document CHEMBL1201862, “PubChem BioAssay data set” (2004)
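The compound was tested at five concentrations on cells cultured in 96-well plates, with a 48-hour exposure period. GI50 is the concentration that inhibits growth by half.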 Calls of active or inactive are those of the source. Cut-off read from the data, not from the text of the source: active = GI50 up to about 1.1 µM and inactive = higher.

Experiments:
Experiment in all cases: DTP human tumour cell line panel, 48 h
HCT-116 = tested on: HCT-116
HOP-92 = tested on: HOP-92
NCI-H522 = tested on: NCI-H522
A549 = tested on: A549
SF-295 = tested on: SF-295
RXF 393 = tested on: RXF 393
CAKI-1 = tested on: CAKI-1
HCT-15 = tested on: HCT-15
NCI-H226 = tested on: NCI-H226
SF-539 = tested on: SF-539
HCC 2998 = tested on: HCC 2998
HT-29 = tested on: HT-29
NCI-H23 = tested on: NCI-H23
SK-MEL-2 = tested on: SK-MEL-2
NCI-H460 = tested on: NCI-H460
OVCAR-5 = tested on: OVCAR-5
K562 = tested on: K562

Row | Structure (SMILES) | GI50 (HCT-116) | GI50 (HOP-92) | GI50 (NCI-H522) | GI50 (A549) | GI50 (SF-295) | GI50 (RXF 393) | GI50 (CAKI-1) | GI50 (HCT-15) [µM] | GI50 (NCI-H226) | GI50 (SF-539) | GI50 (HCC 2998) | GI50 (HT-29) | GI50 (NCI-H23) | GI50 (SK-MEL-2) | GI50 (NCI-H460) | GI50 (OVCAR-5) | GI50 (K562)
1 | NS(=O)(=O)c1cc2c(cc1Cl)NC(C(=O)NNC(=O)c1ccncc1)=NS2(=O)=O | > 100 µM (inactive) | > 100 µM (inactive) | > 100 µM (inactive) | > 100 µM (inactive) | > 100 µM (inactive) | > 100 µM (inactive) | > 100 µM (inactive) | > 100 | > 100 µM (inactive) | > 100 µM (inactive) | > 100 µM (inactive) | > 100 µM (inactive) | > 100 µM (inactive) | > 100 µM (inactive) | > 100 µM (inactive) | – | –
2 | O=c1[nH]c(-c2ccccc2)nc2cc(Cl)ccc12 | > 100 µM (inactive) | – | – | > 100 µM (inactive) | > 100 µM (inactive) | > 100 µM (inactive) | > 100 µM (inactive) | > 100 | 73.3 µM (inactive) | > 100 µM (inactive) | > 100 µM (inactive) | > 100 µM (inactive) | > 100 µM (inactive) | > 100 µM (inactive) | > 100 µM (inactive) | > 100 µM (inactive) | > 100 µM (inactive)
3 | CN(C)CCNC(=O)Cc1ccccc1Nc1c(Cl)cccc1Cl | 17.2 µM (inactive) | – | – | 18 µM (inactive) | 16 µM (inactive) | 15.3 µM (inactive) | – | 15.6 | 17.9 µM (inactive) | 16.5 µM (inactive) | 11.5 µM (inactive) | 10.3 µM (inactive) | 18.4 µM (inactive) | – | 10 µM (inactive) | 11.7 µM (inactive) | 15.3 µM (inactive)
4 | c1ccc(Nc2nnc(CSc3nc(-c4ccccc4)c(-c4ccccc4)[nH]3)s2)cc1 | 17.2 µM (inactive) | 11.1 µM (inactive) | 17.2 µM (inactive) | 28.4 µM (inactive) | 18.6 µM (inactive) | – | – | 18.1 | 14.9 µM (inactive) | 26.4 µM (inactive) | – | 15.2 µM (inactive) | 21.3 µM (inactive) | 19 µM (inactive) | 12.4 µM (inactive) | 21.3 µM (inactive) | –
5 | CCOC(=O)Cc1nc2ccccc2s1 | 18.2 µM (inactive) | – | 19.6 µM (inactive) | 22.9 µM (inactive) | 17.7 µM (inactive) | 20.9 µM (inactive) | 19.6 µM (inactive) | – | 21.8 µM (inactive) | 18.4 µM (inactive) | 88.1 µM (inactive) | 19.6 µM (inactive) | 15.6 µM (inactive) | 18.2 µM (inactive) | 20.4 µM (inactive) | 24.9 µM (inactive) | 25.4 µM (inactive)
6 | CC1CC(C)C(C(O)CC2CC(=O)N(c3ccccc3)C(=O)C2)C(O)C1 (centres undefined) | > 100 µM (inactive) | > 100 µM (inactive) | > 100 µM (inactive) | > 100 µM (inactive) | > 100 µM (inactive) | > 100 µM (inactive) | > 100 µM (inactive) | – | > 100 µM (inactive) | > 100 µM (inactive) | > 100 µM (inactive) | > 100 µM (inactive) | > 100 µM (inactive) | – | > 100 µM (inactive) | > 100 µM (inactive) | > 100 µM (inactive)
7 | CCCCCCCCCCCCCCCC(=O)OCCOCCOCCOCCOCCOC(=O)CCCCCCCCCCCCCCC | > 100 µM (inactive) | > 100 µM (inactive) | > 100 µM (inactive) | > 100 µM (inactive) | > 100 µM (inactive) | > 100 µM (inactive) | > 100 µM (inactive) | > 100 | > 100 µM (inactive) | – | > 100 µM (inactive) | > 100 µM (inactive) | > 100 µM (inactive) | > 100 µM (inactive) | > 100 µM (inactive) | > 100 µM (inactive) | > 100 µM (inactive)
8 | CC(C(=O)n1nnc2ccccc21)N(c1ccccc1)c1ccccc1 (centres undefined) | 89.5 µM (inactive) | – | 45.5 µM (inactive) | 56.9 µM (inactive) | > 100 µM (inactive) | > 100 µM (inactive) | > 100 µM (inactive) | > 100 | 87.7 µM (inactive) | > 100 µM (inactive) | > 100 µM (inactive) | > 100 µM (inactive) | 56.8 µM (inactive) | > 100 µM (inactive) | > 100 µM (inactive) | > 100 µM (inactive) | > 100 µM (inactive)
9 | CC[C@@H]1C[C@@H]2CN3CCc4c([nH]c5ccc(OC)cc45)C(COC(=O)c4ccc(OC)c(OC)c4)(C2)C13 | 4.34 µM (inactive) | 10 µM (inactive) | – | 33 µM (inactive) | 19.5 µM (inactive) | 14.2 µM (inactive) | 19.5 µM (inactive) | 18.4 | 10.4 µM (inactive) | 18.8 µM (inactive) | 20.3 µM (inactive) | 7.82 µM (inactive) | 10.3 µM (inactive) | > 10 µM (inactive) | 21.3 µM (inactive) | 22.6 µM (inactive) | 7.91 µM (inactive)
